Read-outs that look alike come from different tables or passages of the source. Positions of bridges follow the written chain, without caps; N, C: chain ends. Non-standard residues stand in square brackets, D forms with d. Residues, ends and D or L forms follow the SMILES beside them. dPhe(4-CN) = N#Cc1ccc(C[C@@H](N)C(=O)O)cc1
Legend:
[1] = target: T1, hMC4-R (Homo sapiens (Human), UniProt P32245); experiment: Competitive inhibition binding assay using [I125]-NDP-α-MSH, hMC4-R; settings: membranes of HEK-293 cells expressing recombinant hMC4-R, read-out: MC4-R Ki
Protocol: 7.1 Competitive Inhibition Assay using [I^125]-NDP-α-MSH.
A competitive inhibition binding assay was performed for exemplified peptides according to the invention using membrane homogenates prepared from HEK-293 cells that express recombinant hMC4-R, hMC3-R, or hMC5-R, and from B-16 mouse melanoma cells (containing endogenous MC1-R). In some instances, HEK-293 cells that express recombinant hMC1-R were employed. Assays were performed in 96 well GF/B Millipore multiscreen filtration plates (MAFB NOB10) pre-coated with 0.5% bovine serum albumin (Fraction V). Membrane homogenates were incubated with 0.2 nM (for hMC4-R) 0.4 nM (for MC3-R and MC5-R) or 0.1 nM (for mouse B16 MC1-R or hMC1-R) [I^125]-NDP-α-MSH (Perkin Elmer) and increasing concentrations of test peptides of the present invention in buffer containing 25 mM HEPES buffer (pH 7.5) with 100 mM NaCl, 2 mM CaCl2, 2 mM MgCl2, 0.3 mM 1,10-phenanthroline, and 0.2% bovine serum albumin. After incubation for 60 minutes at 37° C., the assay mixture was filtered and the membranes washed three times with ice-cold buffer. Filters were dried and counted in a gamma counter for bound radioactivity. […] Maximal specific binding (100%) was defined as the difference in radioactivity (cpm) bound to cell membranes in the absence and presence of 1 μM NDP-α-MSH. […] Each assay was conducted in triplicate and the actual mean values are described, with results less than 0% reported as 0%. Ki values for test peptides of the present invention were determined using Graph-Pad Prism® curve-fitting software.

[2] = target: T1, hMC4-R; experiment: High and low density hMC4-R functional assay (cAMP, HEK293-T-REx-MC4-R cells); format: cell-based; settings: for Emax: NDP-α-MSH = 100%, read-out: Intrinsic Activity (%)
[3] = 0.1 ng/mL Doxycycline (low density hMC4-R system)
[4] = 10 ng/mL Doxycycline (high density hMC4-R system)

T1 sequence (P32245 whole entry): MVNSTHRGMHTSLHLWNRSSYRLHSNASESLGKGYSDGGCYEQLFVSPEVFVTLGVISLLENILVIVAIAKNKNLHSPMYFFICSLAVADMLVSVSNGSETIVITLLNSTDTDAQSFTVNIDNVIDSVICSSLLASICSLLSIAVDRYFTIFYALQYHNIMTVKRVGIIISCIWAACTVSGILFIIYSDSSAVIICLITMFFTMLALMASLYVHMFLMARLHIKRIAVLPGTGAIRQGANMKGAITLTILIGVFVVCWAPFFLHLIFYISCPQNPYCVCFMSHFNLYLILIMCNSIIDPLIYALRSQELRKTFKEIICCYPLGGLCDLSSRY

Which results are given for `CC(=O)N[C@@H](CCCNC(=N)N)C(=O)N[C@H]1CCCNC(=O)CC[C@@H](C(N)=O)NC(=O)[C@H](Cc2c[nH]c3ccccc23)NC(=O)[C@H](CCCNC(=N)N)NC(=O)[C@@H](Cc2cc(F)cc(F)c2)NC(=O)[C@H](CC(N)=O)NC1=O` [Example 77, Ac-Arg-cyclo(Orn-Asn-D-Phe(3,5-diF)-Arg-Trp-Glu)-NH2]?
Ki [1]: 8 nM; EC50 [2, 3]: 3 nM; Emax [2, 3]: 34%; Emax [2, 4]: 80%

What does the source list for `CC(=O)N[C@H](CCCNC(=N)N)C(=O)N[C@H]1CC(=O)NCCCC[C@@H](C(N)=O)NC(=O)[C@H](Cc2c[nH]c3ccccc23)NC(=O)[C@H](CCCNC(=N)N)NC(=O)[C@@H](Cc2ccc(F)c(F)c2)NC(=O)[C@H](CCC(N)=O)NC1=O` [Example 78, Ac-D-Arg-cyclo(Asp-Gln-D-Phe(3,4-diF)-Arg-Trp-Lys)-NH2]?
Ki [1]: 8 nM; EC50 [2, 3]: 2 nM; Emax [2, 3]: 48%; EC50 [2, 4]: 0.2 nM; Emax [2, 4]: 89%

With `CC(=O)N[C@H](CCCNC(=N)N)C(=O)N[C@H]1CC(=O)NCCCC[C@@H](C(N)=O)NC(=O)[C@H](Cc2c[nH]c3ccccc23)NC(=O)[C@H](CCCNC(=N)N)NC(=O)[C@@H](Cc2ccccc2F)NC(=O)[C@H](CCC(N)=O)NC1=O` [Example 82, Ac-D-Arg-cyclo(Asp-Gln-D-Phe(2-F)-Arg-Trp-Lys)-NH2] as the compound, how does the Ki [1] read?
The Ki was 10 nM.

And the EC50 [2, 3]?
Its EC50 is 2 nM.

And the Emax [2, 3]?
The Emax was 79%.

What about the EC50 [2, 4] of the same compound?
The EC50 was 0.095 nM.

And the Emax [2, 4]?
The Emax was 95%.

With `CC(=O)N[C@H](CCCNC(=N)N)C(=O)N[C@H]1CC(=O)NCCCC[C@@H](C(N)=O)NC(=O)[C@H](Cc2c[nH]c3ccccc23)NC(=O)[C@H](CCCNC(=N)N)NC(=O)[C@@H](Cc2ccc(F)cc2)NC(=O)[C@H](CCC(N)=O)NC1=O` [Example 83, Ac-D-Arg-cyclo(Asp-Gln-D-Phe(4-F)-Arg-Trp-Lys)-NH2] as the compound, how does the Ki [1] read?
The Ki was 6 nM.

What about the EC50 [2, 3] of the same compound?
The EC50 was 0.75 nM.

What about the Emax [2, 3] of the same compound?
The Emax was 78%.

And the EC50 [2, 4]?
The EC50 was 0.075 nM.

And the Emax [2, 4]?
The Emax was 94%.

`COc1cccc(C[C@H]2NC(=O)[C@H](CCN)NC(=O)[C@@H](NC(=O)[C@H](CCCNC(=N)N)NC(C)=O)CCC(=O)NCCC[C@@H](C(N)=O)NC(=O)[C@H](Cc3c[nH]c4ccccc34)NC(=O)[C@H](CCCNC(=N)N)NC2=O)c1` [Example 87, Ac-Arg-cyclo(Glu-Dab-D-Phe(3-OMe)-Arg-Trp-Orn)-NH2] was tested. Which Ki [1] did it give?
The Ki was 3 nM.

And the EC50 [2, 3]?
The EC50 was 1 nM.

What about the Emax [2, 3] of the same compound?
The Emax was 64%.

And the EC50 [2, 4]?
Its EC50 is 0.065 nM.

And the Emax [2, 4]?
The Emax was 100%.

What does the source list for `CC(=O)N[C@@H](CCCNC(=N)N)C(=O)N[C@H]1CCC(=O)NCCC[C@@H](C(N)=O)NC(=O)[C@H](Cc2c[nH]c3ccccc23)NC(=O)[C@H](CCCNC(=N)N)NC(=O)[C@@H](Cc2ccccc2Cl)NC(=O)[C@@H]2CCCN2C1=O` [Example 88, Ac-Arg-cyclo(Glu-Pro-D-Phe(2-Cl)-Arg-Trp-Orn)-NH2]?
Ki [1]: 5 nM; EC50 [2, 3]: 3 nM; Emax [2, 3]: 15%; EC50 [2, 4]: 0.35 nM; Emax [2, 4]: 89%

Which Ki [1] does the source give for `CC(=O)N[C@@H](CCCNC(=N)N)C(=O)N[C@H]1CC(=O)NCCCC[C@@H](C(N)=O)NC(=O)[C@H](Cc2c[nH]c3ccccc23)NC(=O)[C@H](CCCNC(=N)N)NC(=O)[C@@H](Cc2ccc(C#N)cc2)NC(=O)[C@H](CC(N)=O)NC1=O` [Example 89, Ac-Arg-cyclo(Asp-Asn-D-Phe(4-CN)-Arg-Trp-Lys)-NH2] (Ac-RDN[dPhe(4-CN)]RWK-NH2; lactam 2-7) here?
The Ki was 48 nM.

And the Emax [2, 3]?
Its Emax is 6%.

And the Emax [2, 4]?
The Emax was 87%.

Which Ki [1] does the source give for `CC(=O)N[C@@H](CCCNC(=N)N)C(=O)N[C@H]1CC(=O)NCCCC[C@@H](C(N)=O)NC(=O)[C@H](Cc2c[nH]c3ccccc23)NC(=O)[C@H](CCCNC(=N)N)NC(=O)[C@@H](Cc2ccc(C#N)cc2)NC(=O)[C@H](CCC(N)=O)NC1=O` [Example 90, Ac-Arg-cyclo(Asp-Gln-D-Phe(4-CN)-Arg-Trp-Lys)-NH2] here?
The Ki was 5 nM.

And the EC50 [2, 3]?
The EC50 was 4 nM.

And the Emax [2, 3]?
The Emax was 31%.

And the Emax [2, 4]?
The Emax was 96%.

From patent US9040663B2, “Melanocortin receptor-specific peptides” (AstraZeneca AB, priority 2009, dated 2015)
